Source: patent US20100129434A1, “COMPOSITIONS AND METHODS FOR THE TREATMENT OF MUCORMYCOSIS AND OTHER FUNGAL DISEASES” (priority 2006, published 2010)
≈ marks a conversion by molar mass, not a printed value.

Key:
[1] = tested on: rhinocerebral mucormycosis; assay: Salvage therapy of a patient with rhinocerebral mucormycosis (case); assay type: in vivo, human; details: one patient
Method: A person with diabetic ketoacidosis presented to the emergency department of an outside hospital with polyuria, polydipsia, left retrobulbar pain, and a left cranial nerve (CN) VI palsy. […] The patient progressed to complete left opthalmoplegia in the first 24 hours. Rhinocerebral mucormycosis was suspected, and they were started on amphotericin B lipid complex (ABLC) at 5 mg/kg/day, along with empiric antibacterial agents, for treatment of sinusitis. On hospital day 2 they underwent endoscopic sphenooethmoid exploration. […] Bacterial culture grew only rare Enterobacter aerogenes.
Over the next twelve days, the patient developed blindness and worsening proptosis in the left eye. He was continued on ABLC and no further surgery was performed.
The patient was transferred to our institution for further management on hospital day 14. Immediately upon arrival, he underwent left orbital exenteration with enucleation and extensive sinus debridement and resection. Intraoperative findings included an ischemic globe with extensive surrounding necrosis of the extraocular muscles.
Antifungal therapy was continued. […] Given the location of the lesion at the superficial aspect of the pons, a dose of intracisternal amphotericin was administered, but the patient refused further doses. The patient remained clinically and neurologically unchanged. […]

Non-oryzae Rhizopus = assay: Deferasirox susceptibility testing (MIC/MFC), non-oryzae Rhizopus isolates; assay type: cell-based, Rhizopus spp.
Method: Minimum inhibitory concentration (MIC) and minimum fungicidal concentration (MFC) were determined for deferasirox by the method of Espinel-Ingroff using R. oryzae spores starved for iron (Espinel-Ingroff, (2001), supra). Cidality was defined as a <4-fold difference between MIC and MFC.
We next determined the deferasirox susceptibilities of multiple clinical isolates of Mucorales (Table 3). The MIC9OS of deferasirox against Mucor, non-oryzae Rhizopus spp., and R. oryzae were 3.12 to 6.25 μg/ml. MFCs were similar to MICs, and deferasirox was cidal for 28/29 (97%) of isolates. Of note, slight growth was seen within the first twelve hours even at extremely high concentrations of deferasirox. […] Furthermore, the MICs and MFCs of deferasirox against these isolates were well below clinically achievable peak (˜38 μg/ml) and trough serum levels (˜17 μg/ml) of the drug at steady state when administered at the FDA-approved starting dose (20 mg/kg/d).

[2] = 24 h, R. microsporus ATCC 62417
[3] = 48 h, R. microsporus ATCC 62417
[4] = Non-oryzae Rhizopus MIC90/MFC90, 24 h
[5] = Non-oryzae Rhizopus MIC90/MFC90, 48 h
[6] = Rhizopus, 24 h, Rhizopus sp. 99-1150
[7] = Rhizopus, 24 h, Rhizopus sp. 99-1700
[8] = Rhizopus, 48 h, Rhizopus sp. 99-1150
[9] = Rhizopus, 48 h, Rhizopus sp. 99-1700
[10] = Rhizopus, ATCC20577, 24 h, Rhizopus sp. ATCC 20577, 24 h
[11] = Rhizopus, ATCC20577, 48 h, Rhizopus sp. ATCC 20577, 48 h

O=C(O)c1ccc(-n2nc(-c3ccccc3O)nc2-c2ccccc2O)cc1 [Deferasirox, 4-[3,5-Bis(2-hydroxyphenyl)-1H-1,2,4-triazol-1-yl]-benzoic acid] was tested, and the “repeat MRI of the brain” value ([1]; 1000 mg po daily seven days, LAmB continued, one week after treatment) was “resolution of the edema in the left cerebellar peduncle”, the radiographic outcome ([1]; after 7 days of treatment) was “substantial radiographic improvement” and the MFC (Non-oryzae Rhizopus; [2]) was 0.39 µg/mL (≈ 1.04 µM). The MIC (Non-oryzae Rhizopus; [2]) was 0.39 µg/mL (≈ 1.04 µM), the MFC (Non-oryzae Rhizopus; [3]) was 0.39 µg/mL (≈ 1.04 µM) and the MIC (Non-oryzae Rhizopus; [3]) was 0.39 µg/mL (≈ 1.04 µM). The “Fungicidal?” value (Non-oryzae Rhizopus; [4]) was “Y (Cidal = MFC/MIC ≦ 4)”, the MFC90 (Non-oryzae Rhizopus; [4]) was 6.25 µg/mL (≈ 16.7 µM) and the MIC90 (Non-oryzae Rhizopus; [4]) was 6.25 µg/mL (≈ 16.7 µM). For the same molecule, the “Fungicidal?” value (Non-oryzae Rhizopus; [5]) was “Y (Cidal = MFC/MIC ≦ 4)”, the MFC90 (Non-oryzae Rhizopus; [5]) was 6.25 µg/mL (≈ 16.7 µM) and the MIC90 (Non-oryzae Rhizopus; [5]) was 3.12 µg/mL (≈ 8.36 µM). The “Fungicidal?” value (Non-oryzae Rhizopus; R. microsporus ATCC 62417, 24 h) was “Y (Cidal = MFC/MIC ≦ 4)”, the “Fungicidal?” value (Non-oryzae Rhizopus; R. microsporus ATCC 62417, 48 h) was “Y (Cidal = MFC/MIC ≦ 4)” and the “Fungicidal?” value (Non-oryzae Rhizopus; Rhizopus sp. 99-1150, 24 h) was “Y (Cidal = MFC/MIC ≦ 4)”. For the same molecule, the “Fungicidal?” value (Non-oryzae Rhizopus; Rhizopus sp. 99-1150, 48 h) was “Y (Cidal = MFC/MIC ≦ 4)”, the “Fungicidal?” value (Non-oryzae Rhizopus; Rhizopus sp. 99-1700, 24 h) was “Y (Cidal = MFC/MIC ≦ 4)” and the “Fungicidal?” value (Non-oryzae Rhizopus; Rhizopus sp. 99-1700, 48 h) was “Y (Cidal = MFC/MIC ≦ 4)”. The “Fungicidal?” value (Non-oryzae Rhizopus; Rhizopus sp. ATCC 20577, 24 h) was “Y (Cidal = MFC/MIC ≦ 4)”, the “Fungicidal?” value (Non-oryzae Rhizopus; Rhizopus sp. ATCC 20577, 48 h) was “Y (Cidal = MFC/MIC ≦ 4)” and the MFC (Non-oryzae Rhizopus; [6]) was 6.25 µg/mL (≈ 16.7 µM). For the same molecule, the MIC (Non-oryzae Rhizopus; [6]) was 6.25 µg/mL (≈ 16.7 µM), the MFC (Non-oryzae Rhizopus; [7]) was 6.25 µg/mL (≈ 16.7 µM) and the MIC (Non-oryzae Rhizopus; [7]) was 6.25 µg/mL (≈ 16.7 µM). For the same molecule, the MFC (Non-oryzae Rhizopus; [8]) was 3.12 µg/mL (≈ 8.36 µM), the MIC (Non-oryzae Rhizopus; [8]) was 3.12 µg/mL (≈ 8.36 µM) and the MFC (Non-oryzae Rhizopus; [9]) was 1.56 µg/mL (≈ 4.18 µM). For the same molecule, the MIC (Non-oryzae Rhizopus; [9]) was 1.56 µg/mL (≈ 4.18 µM), the MFC (Non-oryzae Rhizopus; [10]) was 6.25 µg/mL (≈ 16.7 µM) and the MIC (Non-oryzae Rhizopus; [10]) was 3.12 µg/mL (≈ 8.36 µM). The MFC (Non-oryzae Rhizopus; [11]) was 6.25 µg/mL (≈ 16.7 µM) and the MIC (Non-oryzae Rhizopus; [11]) was 3.12 µg/mL (≈ 8.36 µM).
